Measured values published in patent US7160905B2, “Hydroxyethylene compounds with Asp2 inhibitory activity” (SmithKline Beecham p.l.c., priority 2001, dated 2007).
Read-outs that look alike come from different tables or passages of the source.

How the values were obtained:
Assay type in all cases: biochemical
Asp-2 = Asp-2 (Homo sapiens, UniProt P56817); assay: Asp-2 inhibitory assay (FAM-[SEVNLDAEFK]-TAMRA fluorescence); conditions: Assay (I), 1 h at room temperature, pH 4.5
Description: (I) Asp-2 Inhibitory Assay
For each compound being assayed, in a 384 well plate, is added:— • a) 1 μl of a DMSO solution of the test compound (IC50 curve uses ten 1 in 2 serial dilutions from 500 μM) • b) 10 μl of substrate (FAM-[SEVNLDAEFK]-TAMRA) solution in buffer. This is prepared by diluting 2 ml of a 2 mM DMSO solution of the substrate into 400 ml of buffer (100 mM Sodium acetate pH=4.5, 1 l Milli-Q water, 0.06% Triton X-100 (0.5 ml/l), pH adjusted to 4.5 using glacial acetic acid). Aminomethyl fluorescein (FAM) and tetramethyl rhodamine (TAMRA) are fluorescent molecules which co-operate to emit fluorescence at 535 nm upon cleavage of the SEVNLDAEFK peptide. • c) 10 μl enzyme solution. This is prepared by diluting 16 ml of a 500 nM enzyme solution into 384 ml of buffer (prepared as above).
(§1) Blank wells (enzyme solution replaced by buffer) are included as controls on each plate. Wells are incubated for 1 h at room temperature and fluorescence read using a Tecan Ultra Fluorimeter/Spectrophotometer (485 nm excitation, 535 nm emission).

Asp-1 = molecular target: T1, Asp-1 (Homo sapiens, UniProt Q9Y5Z0); assay: Asp-1 inhibitory assay (FAM-[SEVNLDAEFK]-TAMRA fluorescence); conditions: Assay (II), 2 h at room temperature, pH 4.5
T1 sequence (Q9Y5Z0 63-518): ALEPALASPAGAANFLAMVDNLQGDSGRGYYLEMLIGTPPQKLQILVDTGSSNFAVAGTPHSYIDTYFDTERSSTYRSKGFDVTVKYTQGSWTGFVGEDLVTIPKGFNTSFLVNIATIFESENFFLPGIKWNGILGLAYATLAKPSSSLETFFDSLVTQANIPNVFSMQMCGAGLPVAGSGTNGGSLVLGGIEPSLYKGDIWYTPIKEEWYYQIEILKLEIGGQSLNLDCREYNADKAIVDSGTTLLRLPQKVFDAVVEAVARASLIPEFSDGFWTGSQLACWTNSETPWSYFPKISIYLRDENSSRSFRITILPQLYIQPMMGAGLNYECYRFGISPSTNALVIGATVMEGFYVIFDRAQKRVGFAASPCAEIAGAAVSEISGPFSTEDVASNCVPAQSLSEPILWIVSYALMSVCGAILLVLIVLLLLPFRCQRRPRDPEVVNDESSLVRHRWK
Description: (II) Asps-1 Inhibitory Assay
(§2) For each compound being assayed, in a 384 well plate, is added:— • a) 1 μl of a DMSO solution of the test compound (IC50 curve uses ten 1 in 2 serial dilutions from 500 μM). • b) 10 μl of substrate (FAM-[SEVNLDAEFK]-TAMRA) solution in buffer. This is prepared by diluting 2 ml of a 2 mM DMSO solution of the substrate into 400 ml of buffer (100 mM Sodium acetate pH=4.5, 1 l Milli-Q water, 0.06% Triton X-100 (0.5 ml/l), pH adjusted to 4.5 using glacial acetic acid). • c) 10 μl enzyme solution. This is prepared by diluting 4 ml of a 6.3 μM enzyme solution into 496 ml of buffer (100 mM Sodium acetate pH=4.5, 40 mM sodium chloride, 900 ml Milli-Q water, 100 ml glycerol, 0.2% CHAPS (2 g/l), pH adjusted to 4.5 using glacial acetic acid).
Blank wells (enzyme solution replaced by buffer) are included as controls on each plate. Wells are incubated for 2 h at room temperature and fluorescence read using a Tecan Ultra Fluorimeter/Spectrophotometer (485 nm excitation, 535 nm emission).

Cathepsin D = Cathepsin D (Homo sapiens, UniProt P07339); assay: Cathepsin D inhibitory assay (FAM-[SEVNLDAEFK]-TAMRA fluorescence); conditions: Assay (III), 1 h at room temperature, pH 4.5; read-out: inhibition (CatD)
Sequence of Cathepsin D (P07339 65-412, species assumed): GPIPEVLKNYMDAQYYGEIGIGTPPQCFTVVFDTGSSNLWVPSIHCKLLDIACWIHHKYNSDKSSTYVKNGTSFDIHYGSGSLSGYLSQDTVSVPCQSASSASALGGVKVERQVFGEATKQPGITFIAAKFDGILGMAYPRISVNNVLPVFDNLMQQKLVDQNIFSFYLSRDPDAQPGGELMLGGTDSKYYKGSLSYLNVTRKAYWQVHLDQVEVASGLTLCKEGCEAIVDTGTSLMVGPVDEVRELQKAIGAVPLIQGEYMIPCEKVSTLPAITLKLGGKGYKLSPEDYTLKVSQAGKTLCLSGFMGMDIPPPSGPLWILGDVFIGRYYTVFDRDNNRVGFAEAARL
Description: (III) Cathepsin D Inhibitory Assay
as §2, with “diluting 1.6” for “diluting 4”, “a 200 unit/ml (in 10 mM HCl)” for “a 6.3 μM”, “into 398.4” for “into 496”, “buffer (prepared as above).” for “buffer (100 mM Sodium acetate pH=4.5, 40 mM sodium chloride, 900 ml Milli-Q water, 100 ml glycerol, 0.2% CHAPS (2 g/l), pH adjusted to 4.5 using glacial acetic acid).”
as §1

Sequence of Asp-2 (P56817 46-501): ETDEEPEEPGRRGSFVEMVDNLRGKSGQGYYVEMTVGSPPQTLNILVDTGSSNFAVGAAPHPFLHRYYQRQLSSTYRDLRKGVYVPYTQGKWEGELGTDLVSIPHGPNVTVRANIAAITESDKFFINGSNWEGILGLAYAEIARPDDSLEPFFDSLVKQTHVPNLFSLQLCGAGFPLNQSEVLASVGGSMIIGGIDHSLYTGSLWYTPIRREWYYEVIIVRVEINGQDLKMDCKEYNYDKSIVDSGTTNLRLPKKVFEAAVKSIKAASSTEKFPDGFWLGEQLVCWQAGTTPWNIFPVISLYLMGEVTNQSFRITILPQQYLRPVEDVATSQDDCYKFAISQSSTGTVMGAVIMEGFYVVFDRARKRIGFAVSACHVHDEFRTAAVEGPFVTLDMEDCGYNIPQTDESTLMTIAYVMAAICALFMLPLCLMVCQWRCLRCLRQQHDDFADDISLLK

IC50 (Asp-2; read-out: inhibition (Asp-2))	IC50 (Asp-1; read-out: inhibition (Asp-1))	IC50 (Cathepsin D)	IC50 (Asp-2; read-out: Asp-2 IC50)	IC50 (Asp-1; read-out: Asp-1 IC50)	Structure (SMILES)
0.18 µM	3.3 µM	9.6 µM	–	–	C[C@H](C[C@H](O)[C@H](Cc1ccccc1)NC(=O)c1ccc(S(C)(=O)=O)s1)C(=O)NCCC(C)(C)C [Example E9, 5-Methanesulfonyl-thiophene-2-carboxylic acid [(1S,2S,4R)-1-benzyl-4-(3,3-dimethyl-butylcarbamoyl)-2-hydroxypentyl]-amide]
–	–	–	0.33 µM	5.57 µM	C#CC[C@H](C[C@H](O)[C@H](Cc1ccccc1)NC(=O)c1cccc(S(C)(=O)=O)c1)C(=O)NC1CC2CCC1C2 (stereo partly shown) [Example E2]
–	–	–	0.4 µM	7.7 µM	C[C@H](C[C@H](O)[C@H](Cc1ccccc1)NC(=O)c1cccc(S(C)(=O)=O)c1)C(=O)NCCC(C)(C)C [Example E1, N-[(1S,2S,4R)-1-Benzyl-4-(3,3-dimethylbutylcarbamoyl)-2-hydroxypentyl]-3-methanesulfonyl-benzamide]
